The assay has as its target T1, ligand binding domain of human RORγ (A262-S507) (Homo sapiens, UniProt P51449).
T1 construct: made in house; host or cells: E. coli
T1 sequence (P51449 262-507): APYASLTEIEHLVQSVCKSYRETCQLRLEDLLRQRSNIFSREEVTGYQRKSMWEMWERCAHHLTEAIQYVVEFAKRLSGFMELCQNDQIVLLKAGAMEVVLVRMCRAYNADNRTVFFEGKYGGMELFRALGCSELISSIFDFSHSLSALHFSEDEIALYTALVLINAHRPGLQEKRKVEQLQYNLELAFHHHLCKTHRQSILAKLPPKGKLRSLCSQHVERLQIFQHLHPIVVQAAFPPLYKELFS
Briefly: General RORγ SPA binding assay (competition with [3H]25-hydroxycholesterol). As to conditions: RORγ SPA binding assay, inhibition of [3H]25-hydroxycholesterol binding; read-out: IC50. As to the method: Example 2 General RORγ SPA Binding Assay
The binding of potential ligands to RORγ is measured by competition with [^3H]25-hydroxycholesterol using a scintillation proximity assay (SPA) binding assay. The ligand binding domain of human RORγ (A262-S507) with an N-terminal His tag is expressed in E. coli and purified using nickel affinity chromotography. 50 nM RORγ (A262-S507) is incubated with test compound at varying concentrations for 15 min at room temperature in PBS buffer containing 0.5% fatty acid free BSA. […] of [^3H]25-hydroxycholesterol is then added, and the reaction is incubated for 15 min. 4 mg/mL of Ysi Copper HIS-TAG SPA Beads (Perkin Elmer) are added, and the mixture is incubated for 30 min. The reaction is read on a MicroBeta Trilux scintillation plate reader (Perkin Elmer). IC50 values are determined from the percentage inhibition of [^3H]25-hydroxycholesterol binding.
Broadly, the IC50 is the midpoint of a concentration-inhibition curve. With `Cc1cc(C)cc(CNC(=O)c2cnc(C)nc2C2CCN(C(=O)C3(c4ccccc4)CC3)CC2)c1` [Compound A32, N-(3,5-dimethylbenzyl)-2-methyl-4-(1-(1-phenylcyclopropanecarbonyl)piperidin-4-yl)pyrimidine-5-carboxamide], the IC50 stood at 1690 nM.
Then `Cc1cc(C)cc(CNC(=O)c2cnc(C)nc2C2CCN(C(=O)c3ncccc3Cl)CC2)c1` [Compound A33, 4-(1-(3-chloropicolinoyl)piperidin-4-yl)-N-(3,5-dimethylbenzyl)-2-methylpyrimidine-5-carboxamide], with 1950 nM.
In the case of `Cc1cc(C)cc(CNC(=O)c2cnc(C)nc2C2CCN(C(=O)Cc3ccc(F)c(F)c3)CC2)c1` [Compound A34, 4-(1-(2-(3,4-difluorophenyl)acetyl)piperidin-4-yl)-N-(3,5-dimethylbenzyl)-2-methylpyrimidine-5-carboxamide], the IC50 was 2690 nM.
For `Cc1cc(C)cc(CNC(=O)c2cnc(C)nc2C2CCN(C(=O)C(C)(C)c3ccccc3)CC2)c1` [Compound A35, N-(3,5-dimethylbenzyl)-2-methyl-4-(1-(2-methyl-2-phenylpropanoyl)piperidin-4-yl)pyrimidine-5-carboxamide], the IC50 amounted to 2970 nM.
The same measure for `CC(C)c1ncc(C(=O)NCc2ccc(Cl)c(Cl)c2)c(C2CCN(C(=O)Cc3ccccc3F)CC2)n1` [Compound A36, N-(3,4-dichlorobenzyl)-4-(1-(2-(2-fluorophenyl)acetyl)piperidin-4-yl)-2-isopropylpyrimidine-5-carboxamide]: 3330 nM; for `O=C(NCc1ccc(Cl)c(Cl)c1)c1cnc(-c2ccccc2)nc1C1CCN(C(=O)Cc2c(F)cccc2F)CC1` [Compound A37, N-(3,4-dichlorobenzyl)-4-(1-(2-(2,6-difluorophenyl)acetyl)piperidin-4-yl)-2-phenylpyrimidine-5-carboxamide]: 4200 nM.
On to `Cc1cc(C)cc(CNC(=O)c2cnc(C)nc2C2CCN(C(=O)Cc3ccccn3)CC2)c1` [Compound A38, N-(3,5-dimethylbenzyl)-2-methyl-4-(1-(2-(pyridin-2-yl)acetyl)piperidin-4-yl)pyrimidine-5-carboxamide], for which the IC50 is 5310 nM.
As for `COc1cccc(CC(=O)N2CCC(c3nc(C)ncc3C(=O)NCc3cc(C)cc(C)c3)CC2)c1` [Compound A39, N-(3,5-dimethylbenzyl)-4-(1-(2-(3-methoxyphenyl)acetyl)piperidin-4-yl)-2-methylpyrimidine-5-carboxamide], the IC50 is 5450 nM.
Then `Cc1ncc(C(=O)NCc2cccc(Cl)c2)c(C2CCN(C(=O)Cc3c(F)cccc3F)CC2)n1` [Compound A40, N-(3-chlorobenzyl)-4-(1-(2-(2,6-difluorophenyl)acetyl)piperidin-4-yl)-2-methylpyrimidine-5-carboxamide], with 5.8 nM; and `Cc1ncc(C(=O)NCc2cc(F)cc(Cl)c2)c(C2CCN(C(=O)Cc3c(F)cccc3F)CC2)n1` [Compound A41, N-(3-chloro-5-fluorobenzyl)-4-(1-(2-(2,6-difluorophenyl)acetyl)piperidin-4-yl)-2-methylpyrimidine-5-carboxamide], with 4.8 nM; and `Cc1ncc(C(=O)NCc2cc(Cl)ccc2F)c(C2CCN(C(=O)Cc3c(F)cccc3F)CC2)n1` [Compound A42, N-(5-chloro-2-fluorobenzyl)-4-(1-(2-(2,6-difluorophenyl)acetyl)piperidin-4-yl)-2-methylpyrimidine-5-carboxamide], with 5.1 nM.
Regarding `Cc1cc(C)cc(CNC(=O)c2cnc(C3CC3)nc2C2CCN(C(=O)Cc3c(F)cccc3F)CC2)c1` [Compound A43, 2-cyclopropyl-4-(1-(2-(2,6-difluorophenyl)acetyl)piperidin-4-yl)-N-(3,5-dimethylbenzyl)pyrimidine-5-carboxamide], the IC50 was 5.4 nM.
Then `Cc1ncc(C(=O)NCc2cccc(C(F)(F)F)n2)c(C2CCN(C(=O)Cc3c(F)cccc3F)CC2)n1` [Compound A44, 4-(1-(2-(2,6-difluorophenyl)acetyl)piperidin-4-yl)-2-methyl-N-((6-(trifluoromethyl)pyridin-2-yl)methyl)pyrimidine-5-carboxamide], with 5.7 nM.
Then `O=C(NCc1cccc(Cl)c1)c1cnc(C2CC2)nc1C1CCN(C(=O)Cc2c(F)cccc2F)CC1` [Compound A45, N-(3-chlorobenzyl)-2-cyclopropyl-4-(1-(2-(2,6-difluorophenyl)acetyl)piperidin-4-yl)pyrimidine-5-carboxamide], with 6 nM; and `Cc1ncc(C(=O)NCc2cccc(C(F)(F)F)c2)c(C2CCN(C(=O)Cc3c(F)cccc3F)CC2)n1` [Compound A46, 4-(1-(2-(2,6-difluorophenyl)acetyl)piperidin-4-yl)-2-methyl-N-(3-(trifluoromethyl)benzyl)pyrimidine-5-carboxamide], with 6.1 nM; and `Cc1ncc(C(=O)NCc2ccnc(C(F)(F)F)c2)c(C2CCN(C(=O)Cc3c(F)cccc3F)CC2)n1` [Compound A47, 4-(1-(2-(2,6-difluorophenyl)acetyl)piperidin-4-yl)-2-methyl-N-((2-(triflnoromethyl)pyridin-4-yl)methyl)pyrimidine-5-carboxamide], with 6.3 nM.
Then `CCc1ncc(C(=O)NCc2cccc(Cl)c2)c(C2CCN(C(=O)Cc3c(F)cccc3F)CC2)n1` [Compound A48, N-(3-chlorobenzyl)-4-(1-(2-(2,6-difluorophenyl)acetyl)piperidin-4-yl)-2-ethylpyrimidine-5-carboxamide], with 6.7 nM; and `Cc1ncc(C(=O)NCc2cc(Cl)nc(Cl)c2)c(C2CCN(C(=O)Cc3c(F)cccc3F)CC2)n1` [Compound A49, N-((2,6-dichloropyridin-4-yl)methyl)-4-(1-(2-(2,6-difluorophenyl)acetyl)piperidin-4-yl)-2-methylpyrimidine-5-carboxamide], with 6.8 nM.
For the compound `Cc1ncc(C(=O)NCc2cccc(C#N)c2)c(C2CCN(C(=O)Cc3c(F)cccc3F)CC2)n1` [Compound A50, N-(3-cyanobenzyl)-4-(1-(2-(2,6-difluorophenyl)acetyl)piperidin-4-yl)-2-methylpyrimidine-5-carboxamide], the IC50 was 7.1 nM.
As to `Cc1ncc(C(=O)NCc2cc(Cl)cc(Cl)c2)c(C2CCN(C(=O)Cc3c(F)cccc3F)CC2)n1` [Compound A51, N-(3,5-dichlorobenzyl)-4-(1-(2-(2,6-difluorophonyl)acetyl)piperidin-4-yl)-2-methylpyrimidine-5-carboxamide], the IC50 was 7.2 nM.
The same measure for `COc1cc(CNC(=O)c2cnc(C)nc2C2CCN(C(=O)Cc3c(F)cccc3F)CC2)cc(Cl)n1` [Compound A52, N-((2-chloro-6-methoxypyridin-4-yl)methyl)-4-(1-(2-(2,6-difluorophenyl)acetyl)piperidin-4-yl)-2-methylpyrimidine-5-carboxamide]: 7.5 nM.
Consider `Cc1ncc(C(=O)NCc2cccc(OC(F)(F)F)c2)c(C2CCN(C(=O)Cc3c(F)cccc3F)CC2)n1` [Compound A53, 4-(1-(2-(2,6-difluorophenyl)acetyl)piperidin-4-yl)-2-methyl-N-(3-(trifluoromethoxy)benzyl)pyrimidine-5-carboxamide], for which the IC50 is 8.1 nM.
Then `Cc1ncc(C(=O)NCc2cccc(Cl)c2F)c(C2CCN(C(=O)Cc3c(F)cccc3F)CC2)n1` [Compound A54, N-(3-chloro-2-fluorobenzyl)-4-(1-(2-(2,6-ditluorophenyl)acetyl)piperidin-4-yl)-2-methylpyrimidine-5-carboxamide], with 13.9 nM; and `Cc1ncc(C(=O)NCc2ccnc(C#N)c2)c(C2CCN(C(=O)Cc3c(F)cccc3F)CC2)n1` [Compound A55, N-((2-cyanopyridin-4-yl)methyl)-4-(1-(2-(2,6-difluorophenyl)acetyl)piperidin-4-yl)-2-methylpyrimidine-5-carboxamide], with 19.2 nM; and `Cc1ncc(C(=O)NCc2ccnc(Cl)c2)c(C2CCN(C(=O)Cc3c(F)cccc3F)CC2)n1` [Compound A56, N-((2-chloropyridin-4-yl)methyl)-4-(1-(2-(2,6-difluorophenyl)acetyl)piperidin-4-yl)-2-methylpyrimidine-5-carboxamide], with 19.3 nM.
Turning to `Cc1cc(C)cc(CNC(=O)c2cncnc2C2CCN(C(=O)Cc3c(F)cccc3F)CC2)c1` [Compound A57, 4-(1-(2-(2,6-difluorophenyl)acetyl)piperidin-4-yl)-N-(3,5-dimethylbenzyl)pyrimidine-5-carboxamide], the IC50 was determined as 21.8 nM.
The same measure for `COc1cccc(CNC(=O)c2cnc(C)nc2C2CCN(C(=O)Cc3c(F)cccc3F)CC2)c1` [Compound A58, 4-(1-(2-(2,6-difluorophenyl)acetyl)piperidin-4-yl)-N-(3-methoxybenzyl)-2-methylpyrimidine-5-carboxamide]: 24.3 nM.
The same measure for `Cc1ncc(C(=O)NCc2ccc(Cl)cc2C)c(C2CCN(C(=O)Cc3c(F)cccc3F)CC2)n1` [Compound A59, N-(4-chloro-2-methylbenzyl)-4-(1-(2-(2,6-difluorophenyl)acetyl)piperidin-4-yl)-2-methylpyrimidine-5-carboxamide]: 25.5 nM.

These data come from patent US10035790B2, “RORγ modulators” (BRISTOL-MYERS SQUIBB COMPANY, priority 2012, dated 2018).
